{
  "source": "patent US10640748B2",
  "about": "“Oligodendroglial cell culturing methods and in methods for treating neurodegenerative disorders by using thyroid hormones or analogues” (NeuOrphan Pty Ltd, priority 2014, dated 2020)",
  "system": "hESC-derived OPCs",
  "assay": "Stage VI terminal differentiation of hESC-derived OPCs",
  "type": "cell-based, human",
  "description": "Stage VI; for terminal differentiation, these cells were plated onto poly-L-ornithine (10 μg/mL, Sigma-Aldrich) and mouse laminin (10 μg/mL, Life technologies) coated plates in N2/B27 medium supplemented with T3 (50 ng/mL, Sigma-Aldrich) for 21 days to induce pre-OLs.",
  "data": [
    {"smiles": "N[C@@H](Cc1cc(I)c(Oc2ccc(O)c(I)c2)c(I)c1)C(=O)O", "note": "[T3, Triiodothyronine]", "values": [
      {"measurement": "terminal differentiation of OPCs into O4+ pre-OLs and MBP+ pre-myelinating OLs", "result": "promoted terminal differentiation"}
    ]}
  ]
}
